Here are results for ten molecules from US9365576B2, “Pyrrolopyrrolidinone compounds” (Novartis AG, priority 2012, dated 2016).

Each structure is given as a SMILES string.

Chain of human MDM2 protein (amino acids 2-188) (Q00987 2-188): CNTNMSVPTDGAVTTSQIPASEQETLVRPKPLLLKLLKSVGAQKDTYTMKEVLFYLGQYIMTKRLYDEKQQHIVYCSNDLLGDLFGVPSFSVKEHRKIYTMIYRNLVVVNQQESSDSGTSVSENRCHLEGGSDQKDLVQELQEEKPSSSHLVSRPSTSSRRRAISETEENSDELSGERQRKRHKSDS

This assay addresses human MDM2 protein (amino acids 2-188) (Homo sapiens (Human), UniProt Q00987). The experiment in a line: TR-FRET assay, p53-MDM2 Assay 2 (modified). Format: binding. The conditions noted are these: TR-FRET; 0.1 nM MDM2, 0.1 nM Europium labeled streptavidin, Tecan genios Pro reader; read-out: IC50 p53-MDM2 Assay 2. The procedure: The inhibition of p53-MDM2 and p53-MDM4 interactions is measured by time resolved fluorescence energy transfer (TR-FRET). Fluorescence energy transfer (or Foerster resonance energy transfer) describes an energy transfer between donor and acceptor fluorescent molecules. For this assay, human MDM2 protein (amino acids 2-188) and human MDM4 protein (amino acids 2-185), tagged with a C-terminal biotin moiety, are used in combination with a Europium labeled streptavidin (Perkin Elmer, Inc., Waltham, Mass., USA) serving as the donor fluorophore. The p53 derived, Cy5 labeled peptide Cy5-[…] (p53 aa18-26) is the energy acceptor. Upon excitation of the donor molecule at 340 nm, binding interaction between MDM2 or MDM4 and the p53 peptide induces energy transfer and enhanced response at the acceptor emission wavelength at 665 nm. […] The ratiometric FRET assay readout is calculated from the raw data of the two distinct fluorescence signals measured in time resolved mode (fluorescence 665 nm/fluorescence 620 nm×1000).
After addition of 1.25 nM MDM2-biotinylated or 2.5 nM MDM4-biotinylated (internal preparations), and 0.625 nM Europium labeled streptavidin (Perkin Elmer), the solution is pre-incubated for 15 minutes at room temperature, then 10 nM Cy5-p53 peptide (internal preparation) is added before an incubation at room temperature for 15 minutes prior to reading the plate. For measurement of samples, a Victor II microplate reader (Perkin Elmer) is used with the following settings: Excitation 340 nm, Emission Donor 620 nm and Emission Acceptor 665 nm. IC50 values are calculated by curve fitting using XLfit. If not specified, reagents are purchased from Sigma-Aldrich Chemie GmBH, Buchs, Switzerland.
A general note: Time-resolved FRET reads energy transfer from a long-lived donor to a nearby acceptor.
`CNC(=O)c1ccc(OC)c(-c2cc3c(n2C(C)C)C(c2ccc(Cl)cc2C)N(c2cc(Cl)c(=O)n(C)c2)C3=O)c1` (stereo not shown) [Example 145, 3-[5-(5-Chloro-1-methyl-6-oxo-1,6-dihydro-pyridin-3-yl)-6-(4-chloro-2-methyl-phenyl)-1-isopropyl-4-oxo-1,4,5,6-tetrahydro-pyrrolo[3,4-b]pyrrol-2-yl]-4-methoxy-N-methyl-benzamide]: the IC50 (as a rule, the midpoint of a concentration-inhibition curve) turned out to be 0.187 nM. The figure for `COc1ccc(C(=O)NCCS(C)(=O)=O)cc1-c1cc2c(n1C(C)C)C(c1ccc(Cl)cc1)N(c1cc(Cl)ccc1C)C2=O` (stereo not shown) [Example 36, 3-[5-(5-Chloro-2-methyl-phenyl)-6-(4-chloro-phenyl)-1-isopropyl-4-oxo-1,4,5,6-tetrahydro-pyrrolo[3,4-b]pyrrol-2-yl]-N-(2-methanesulfonyl-ethyl)-4-methoxy-benzamide] is 0.115 nM. As for `Cc1ccc(Cl)cc1N1C(=O)c2cc(-c3ccccc3O)n(C(C)C)c2C1c1ccc(Cl)cc1` (stereo not shown) [Example 29, 5-(5-Chloro-2-methyl-phenyl)-6-(4-chloro-phenyl)-2-(2-hydroxy-phenyl)-1-isopropyl-5,6-dihydro-1H-pyrrolo[3,4-b]pyrrol-4-one], the IC50 worked out at 0.306 nM. The figure for `COc1ncc(-c2c(C(=O)O)c3c(n2C(C)C)C(c2ccc(Cl)cc2)N(c2cc(Cl)c(=O)n(C)c2)C3=O)c(OC)n1` (stereo not shown) [Example 221, 5-(5-Chloro-1-methyl-6-oxo-1,6-dihydro-pyridin-3-yl)-6-(4-chloro-phenyl)-2-(2,4-dimethoxy-pyrimidin-5-yl)-1-isopropyl-4-oxo-1,4,5,6-tetrahydro-pyrrolo[3,4-b]pyrrole-3-carboxylic acid] is 0.14 nM; for `COc1nc(N(C)C)ncc1-c1cc2c(n1C(C)C)C(c1ccc(Cl)cc1F)N(c1cc(C)nn1C)C2=O` (stereo not shown) [Example 212, 6-(4-Chloro-2-fluoro-phenyl)-2-(2-dimethylamino-4-methoxy-pyrimidin-5-yl)-5-(2,5-dimethyl-2H-pyrazol-3-yl)-1-isopropyl-5,6-dihydro-1H-pyrrolo[3,4-b]pyrrol-4-one] it is 0.769 nM; for `COC[C@@H](C)n1c(-c2cnc(N)nc2OC)cc2c1C(c1ccc(Cl)cc1)N(c1ccc(F)c(Cl)c1)C2=O` (stereo partly drawn) [Example 224, (R,S)-2-(2-Amino-4-methoxy-pyrimidin-5-yl)-5-(3-chloro-4-fluoro-phenyl)-6-(4-chloro-phenyl)-1-((R)-2-methoxy-1-methyl-ethyl)-5,6-dihydro-1H-pyrrolo[3,4-b]pyrrol-4-one] it is 0.362 nM.

`COc1ncccc1-c1cc2c(n1C(C)C)C(c1ccc(Cl)cc1C)N(c1cccc(Cl)c1F)C2=O` (stereo not shown) [Example 5, 5-(3-Chloro-2-fluoro-phenyl)-6-(4-chloro-2-methyl-phenyl)-1-isopropyl-2-(2-methoxy-pyridin-3-yl)-5,6-dihydro-1H-pyrrolo[3,4-b]pyrrol-4-one]: the concentration for half-maximal inhibition (IC50) worked out at 1.7 nM. Consider `COC[C@@H](C)n1c(-c2cnc(N)nc2OC)cc2c1[C@H](c1ccc(Cl)cc1)N(c1ccc(F)c(Cl)c1)C2=O` [Example 229], for which the IC50 turned out to be 0.078 nM. As to `COc1ccc(S(C)(=O)=O)cc1-c1cc2c(n1C(C)C)C(c1ccc(Cl)cc1)N(c1cc(Cl)ccc1C)C2=O` (stereo not shown) [Example 114, 5-(5-Chloro-2-methyl-phenyl)-6-(4-chloro-phenyl)-1-isopropyl-2-(5-methanesulfonyl-2-methoxy-phenyl)-5,6-dihydro-1H-pyrrolo[3,4-b]pyrrol-4-one], the IC50 is 0.184 nM. The value for `COc1ccc(CC(N)=O)cc1-c1cc2c(n1C(C)C)C(c1ccc(Cl)cc1)N(c1cc(Cl)ccc1C)C2=O` (stereo not shown) [Example 80, 2-{3-[5-(5-Chloro-2-methyl-phenyl)-6-(4-chloro-phenyl)-1-isopropyl-4-oxo-1,4,5,6-tetrahydro-pyrrolo[3,4-b]pyrrol-2-yl]-4-methoxy-phenyl}-acetamide] was 0.115 nM.
